From patent US20080171783A1, “COMPOSITIONS AND METHODS FOR TREATING HYPERPROLIFERATIVE DISEASE” (Migenix Inc., priority 2006, published 2008)

What was measured:
UACC-257 = assay: NCI In Vitro Cell Line Screening (SRB); type: cell-based, human; details: UACC-257, Melanoma, 48 h
Caco-2 = assay: Cell viability by XTT
Method: (§1) Compounds were solubilized at […] in DMSO and were stored at −20° C. Test compounds were initially tested at a single concentration of 10 μM and a subset of test compounds were further tested in selected cell lines using a six concentration dose response curve.
(§2) Cell Preparation Cancer cell lines were passaged in T-75 flasks prior to use in the assay in cell culture medium recommended by the ATCC (American Type Culture Collection; Table 6). On the day preceding the assay, the cells were split 1:2 to assure they were in an exponential growth phase at the time of compound treatment. Total cell and viability quantification was performed using a hemocytometer and Trypan Blue dye exclusion. […] The cells were resuspended at the appropriate cell per mL (Table 6) in tissue culture medium and added to the microtitre plates in a volume of 100 μL. Colon cell lines were incubated overnight at 37° C./5% CO2 to allow for cell adherence to the plates.
(§3) Plate Format: Each plate contains cell control wells (cells only), drug calorimetric control wells (drug only) as well as experimental wells (drug plus cells). Samples were tested in triplicate at a concentration of 10 μM and five half-logarithmic dilutions.
(§4) Cell Viability by XTT: Following incubation at 37° C. in a 5% CO2 incubator for four days, the test plates were stained with the tetrazolium dye XTT (2,3-bis(2-methoxy-4-nitro-5-sulfophenyl)-5-[(phenylamino)carbonyl]-2H-tetrazolium hydroxide). XTT-tetrazolium was metabolized by the mitochondrial enzymes of metabolically active cells to a soluble formazan product. XTT solution was prepared daily as a stock of 1 mg/mL in RPMI1640. Phenazine methosulfate (PMS) solution was prepared at 0.15 mg/mL in phosphate buffered saline (PBS) and stored in the dark at −20° C. XTT/PMS stock was prepared immediately before use by adding 40 μL of PMS per mL of XTT solution. Fifty (50) microlitres of XTT/PMS was added to each well of the plate and the plate was reincubated for 4 hours at 37° C. Plates were sealed with adhesive plate sealers and shaken gently or inverted several times to mix the soluble formazan product and the plate was read spectrophotometrically at 450/650 nm with a Molecular Devices Vmax plate reader. […] An Average Response Factor (ARF) was calculated for each compound by averaging the ten Percentage of Control values for the cell lines. […] Deviations below 100% control indicate activity. The concentration of each tested compound is 10 μM.

Jurkat = assay: Cell viability by XTT
Method: as §1, §2, §3, §4

THP-1 = assay: Cell viability by XTT
Method: as §1, §2, §3, §4

HT29 = assay: cells
Method: as §1, §2, §3, §4

HL-60 = assay: Cell viability by XTT; type: cell-based; details: HL-60, single dose 10 μM, four days
Method in brief: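 Leukemia and colon cancer lines in exponential growth were exposed to compounds for four days at 37 °C/5% CO2, with colon lines allowed overnight adherence beforehand. Viability read by XTT/PMS reduction (4 h) at 450/650 nm; percent of control at 10 μM averaged over ten lines as ARF.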

human polymerase alpha = target: T1, human polymerase alpha (Homo sapiens, UniProt P09884); assay: Human polymerase alpha inhibition (Replizyme kit); type: biochemical; details: dose response
T1 construct: purchased Replizyme Ltd (Heslington, York, UK)
T1 sequence (P09884 1-1462): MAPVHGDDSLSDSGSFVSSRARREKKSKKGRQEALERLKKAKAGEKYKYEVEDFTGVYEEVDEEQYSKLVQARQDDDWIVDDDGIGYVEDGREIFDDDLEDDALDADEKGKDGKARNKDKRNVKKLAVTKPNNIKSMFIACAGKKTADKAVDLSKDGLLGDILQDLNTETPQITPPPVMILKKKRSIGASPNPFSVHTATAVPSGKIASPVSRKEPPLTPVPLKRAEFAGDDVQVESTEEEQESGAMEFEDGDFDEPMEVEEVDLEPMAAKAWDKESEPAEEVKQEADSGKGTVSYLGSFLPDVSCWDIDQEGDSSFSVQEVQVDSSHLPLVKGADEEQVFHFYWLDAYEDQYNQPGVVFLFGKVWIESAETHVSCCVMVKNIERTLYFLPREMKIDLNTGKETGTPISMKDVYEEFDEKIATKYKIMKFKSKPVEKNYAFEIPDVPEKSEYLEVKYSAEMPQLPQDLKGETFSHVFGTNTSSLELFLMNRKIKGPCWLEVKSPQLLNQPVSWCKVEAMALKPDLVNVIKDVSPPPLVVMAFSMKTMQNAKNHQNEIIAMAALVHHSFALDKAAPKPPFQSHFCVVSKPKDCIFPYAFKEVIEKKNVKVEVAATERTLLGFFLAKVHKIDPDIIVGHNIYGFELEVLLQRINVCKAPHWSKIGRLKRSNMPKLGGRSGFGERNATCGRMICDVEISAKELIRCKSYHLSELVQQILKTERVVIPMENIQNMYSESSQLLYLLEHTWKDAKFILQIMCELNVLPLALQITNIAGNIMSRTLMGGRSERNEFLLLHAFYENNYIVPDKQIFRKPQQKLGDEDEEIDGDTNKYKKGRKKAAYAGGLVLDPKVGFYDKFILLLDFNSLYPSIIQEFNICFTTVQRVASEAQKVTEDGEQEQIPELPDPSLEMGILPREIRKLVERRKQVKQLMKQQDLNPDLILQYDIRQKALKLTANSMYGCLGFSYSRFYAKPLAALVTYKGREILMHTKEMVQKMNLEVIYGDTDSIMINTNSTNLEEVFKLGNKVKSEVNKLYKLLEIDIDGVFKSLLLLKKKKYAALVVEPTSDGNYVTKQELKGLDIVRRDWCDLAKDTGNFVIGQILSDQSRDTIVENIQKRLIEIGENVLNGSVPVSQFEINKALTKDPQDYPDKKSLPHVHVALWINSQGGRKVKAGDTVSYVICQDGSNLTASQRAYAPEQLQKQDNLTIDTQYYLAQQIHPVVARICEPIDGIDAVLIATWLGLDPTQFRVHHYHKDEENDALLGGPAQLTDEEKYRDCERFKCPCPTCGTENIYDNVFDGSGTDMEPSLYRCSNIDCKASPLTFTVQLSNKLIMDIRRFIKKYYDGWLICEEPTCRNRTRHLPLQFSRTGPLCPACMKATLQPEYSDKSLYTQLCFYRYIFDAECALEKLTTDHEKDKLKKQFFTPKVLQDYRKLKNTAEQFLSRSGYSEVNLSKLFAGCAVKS
Method: Calf polymerase alpha and human polymerase alpha investigations were performed with a kit available from Replizyme Ltd (Heslington, York, UK).

Compound	GI50 (UACC-257; Homo sapiens) [µM]	TGI (UACC-257) [µM]	Percentage of Cell Control (Caco-2; Caco-2, single dose 10 μM, four days) [%]	CC50 (Caco-2; Homo sapiens, Caco-2, read-out: Activity (TC50)) [µM]	CC50 (Jurkat; Homo sapiens, read-out: Activity (TC50)) [µM]	Percentage of Cell Control (Jurkat; single dose 10 μM, four days) [%]	CC50 (THP-1; Homo sapiens, THP-1, read-out: Activity (TC50)) [µM]	Percentage of Cell Control (THP-1; THP-1, single dose 10 μM, four days) [%]	Percentage of Cell Control (HT29; HT29, single dose 10 μM, four days) [%]	CC50 (HT29; Homo sapiens, HT-29, read-out: Activity (TC50)) [µM]	Percentage of Cell Control (HL-60) [%]	IC50 (human polymerase alpha) [µM]
CC(C)(C)c1ccc(NC(=O)[C@H](CCCCN)NC(=O)OCC2c3ccccc3-c3ccccc32)cc1 [Compound 105, (S)-[5-AMINO-1-(4-TERT-BUTYL-PHENYLCARBAMOYL)-PENTYL]-CARBAMIC ACID 9H-FLUOREN-9-YLMETHYL ESTER]	1.75	3.70	0	8.6	2.5	23.5	6.7	0	13.8	8.5	19.6	–
Cc1cc2cc(NC(=O)[C@H](CCCNC(=O)CN)NC(=O)Nc3ccc4c(c3)Cc3ccccc3-4)ccc2[nH]1 [Compound 297, (S)-5-(2-AMINO-ACETYLAMINO)-2-[3-(9H-FLUOREN-2-YL)-UREIDO]-PENTANOIC ACID (2-METHYL-1H-INDOL-5-YL)-AMIDE]	–	–	–	–	–	–	–	–	–	–	–	10
